According to patent US20260167620A1, “MULTIFUNCTIONAL COMPOUND CAPABLE OF DEGRADING BTK KINASE, AND COMPOSITION AND USE” (HANGZHOU HEALZEN THERAPEUTICS CO., LTD., priority 2021, published 2026):

What was measured:
BTK = biological target: T1, BTK (Homo sapiens, UniProt Q06187); test: BTK degradation activity test in Mino cells (Westernblot or Elisa); type: cell-based; details: 24-72 h incubation
T1 construct: endogenous in cells; host or cells: Mino cells
Experimental: The Mino cell line cells are 0.5˜1 million/well in 6-well plates. The compounds are diluted to different concentrations, added to the plate, and after 24-72 h of incubation, the cells are collected. After the cells were lysed, the total protein concentration in each well was determined with a BCA kit. The amount of BTK is determined using the Westernblot or Elisa method.

Mino cells = test: Inhibitory activity on Mino cell proliferation (MTS); type: cell-based; details: Homo sapiens, 72 h or 168 h
Experimental: (§1) The anti-tumor efficacy of the compounds was tested by measuring their inhibitory effects on OCI-LY10 and Mino cell proliferation. OCI-LY10 and Mino cells were cultured in RPM-1640 medium containing […] fetal calf serum. OCI-LY10 and Mino cells were digested, inoculated in a 96-well plate at a cell concentration of 10000 cells/well, and incubated overnight at 37° C., 5% CO2. Compounds of different concentrations (1000 nM, 4-fold dilution, 8 points) were added to the 96-well plate and incubated for 72 h or 168 h at 37° C. and […], and then 20 μL of MTS was added to each well. After incubation for 2 h, 25 μl of 10% SDS was added to each well to terminate the reaction. The absorbance at 490 nm and 650 nm were measured with a microplate reader. IC50 was calculated using GraphPad Prism 5.0.

OCI-LY10 cells = test: Inhibitory activity on OCI-LY10 cell proliferation (MTS); type: cell-based; details: Homo sapiens, 72 h or 168 h
Experimental: as §1

[1] = Liver microsomal metabolic stability, human; type: in vitro ADME; details: human liver microsomes, NADPH, 37° C.
Experimental: (§2) Under the condition of ice bath, 1 mg of human or Mouse liver microparticles was add to PBS (1 mL) buffer, then NADPH (20 μL) was added, and incubated at 37° C. for 5 min. 10 μL of the compound to be tested was added, then suck several times with a pipette and divide into 3 aliquots of 330 μL; each and then samples were taken at 0, 15, 30, 60 and 120 min respectively. 10 μL of the solution was taken with a pipette each time and added to 490 μL of the solution containing the internal standard compound. The resulting solution was vortexed and then placed on ice, and then sampling at another time point continues. All samples were centrifuged at 10,000 rpm for 10 min, and the supernatant was taken for LC/MS testing. The metabolism of the compound in liver microsomes was calculated based on the peak area.

[2] = Liver microsomal metabolic stability, mouse; type: in vitro ADME; details: mouse liver microsomes, NADPH, 37° C.
Experimental: as §2

T1 sequence (Q06187 whole entry): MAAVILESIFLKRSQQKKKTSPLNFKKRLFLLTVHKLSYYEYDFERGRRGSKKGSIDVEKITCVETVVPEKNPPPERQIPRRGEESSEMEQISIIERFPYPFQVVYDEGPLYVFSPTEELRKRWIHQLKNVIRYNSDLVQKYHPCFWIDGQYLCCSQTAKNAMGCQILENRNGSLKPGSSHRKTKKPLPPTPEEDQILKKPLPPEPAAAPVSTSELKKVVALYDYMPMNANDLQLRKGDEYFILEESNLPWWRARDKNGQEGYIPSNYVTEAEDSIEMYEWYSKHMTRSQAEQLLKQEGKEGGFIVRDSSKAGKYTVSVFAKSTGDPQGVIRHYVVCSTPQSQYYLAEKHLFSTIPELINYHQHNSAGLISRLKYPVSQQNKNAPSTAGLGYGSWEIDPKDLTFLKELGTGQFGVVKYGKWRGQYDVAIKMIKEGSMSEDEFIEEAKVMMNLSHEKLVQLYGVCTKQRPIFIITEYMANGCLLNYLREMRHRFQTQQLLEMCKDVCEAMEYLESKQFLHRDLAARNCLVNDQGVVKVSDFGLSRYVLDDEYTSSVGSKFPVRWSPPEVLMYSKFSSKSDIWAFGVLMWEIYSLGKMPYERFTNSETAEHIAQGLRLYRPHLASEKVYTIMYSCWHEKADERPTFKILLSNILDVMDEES

Row | SMILES | DC50 (BTK) [nM] | IC50 (Mino cells) [nM] | IC50 (OCI-LY10 cells) [nM] | Thalf (min) Human [1] [min] | Thalf (min) Mouse [2] [min]
1 | NC(=O)c1nnc(N2CCOCC2)nc1Nc1ccc(N2CCN(CC3CCN(c4ccc(C(=O)NC5CCC(=O)NC5=O)nc4)CC3)CC2)c(F)c1 (stereo not shown) [Compound 100, 5-((4-(4-((1-(6-((2,6-dioxopiperidin-3-yl)carbamoyl)pyridin-3-yl)piperidin-4-yl)methyl)piperazin-1-yl)-3-fluorophenyl)amino)-3-morpholino-1,2,4-triazine-6-carboxamide] | < 10 | 3.83 | 0.39 |  | 
2 | CC(=O)N[C@@H]1CCCN(c2nnc(C(N)=O)c(Nc3ccc(C4CCN(CC5CCN(c6ccc7c(c6)C(=O)N(C6CCC(=O)NC6=O)C7=O)CC5)CC4)cc3)n2)C1 (stereo partly drawn) [Compound 023, 3-((R)-3-acetamidopiperidin-1-yl)-5-((4-(1-((1-(2-(2,6-dioxopiperidin-3-yl)-1,3-dioxoisoindolin-5-yl)piperidin-4-yl)methyl)piperidin-4-yl)phenyl)amino)-1,2,4-triazine-6-carboxamide] | < 10 | 6.75 | 0.69 | 20 | 59
3 | CC(=O)N[C@@H]1CCCN(c2nnc(C(N)=O)c(Nc3ccc(C4CCN(CC5CCN(c6ccc7c(c6)C(=O)N(C6CCC(=O)NC6=O)C7=O)C5)CC4)cc3)n2)C1 (stereo partly drawn) [Compound 016, 3-((R)-3-acetamidopiperidin-1-yl)-5-((4-(1-((1-(2-(2,6-dioxopiperidin-3-yl)-1,3-dioxoisoindolin-5-yl)pyrrolidin-3-yl)methyl)piperidin-4-yl)phenyl)amino)-1,2,4-triazine-6-carboxamide] | < 10 | 1.45 | 0.32 | 37 | 49
4 | CC(=O)N[C@@H]1CCCN(c2nnc(C(N)=O)c(Nc3ccc(N4CCN(CC5CCN(c6ccc(C(=O)NC7CCC(=O)NC7=O)nc6)CC5)CC4)c(F)c3)n2)C1 (stereo partly drawn) [Compound 092, 3-((R)-3-acetamidopiperidin-1-yl)-5-((4-(4-((1-(6-((2,6-dioxopiperidin-3-yl)carbamoyl)pyridin-3-yl)piperidin-4-yl)methyl)piperazin-1-yl)-3-fluorophenyl)amino)-1,2,4-triazine-6-carboxamide] | < 10 | 3.28 | 0.24 | 41 | 90
5 | NC(=O)c1nnc(N2CCCCC2)nc1Nc1ccc(C2CCN(CC3CCN(c4ccc5c(c4)C(=O)N(C4CCC(=O)NC4=O)C5=O)C3)CC2)nn1 (stereo not shown) [Compound 004, 5-((6-(1-((1-(2-(2,6-dioxopiperidin-3-yl)-1,3-dioxoisoindolin-5-yl)pyrrolidin-3-yl)methyl)piperidin-4-yl)pyridazin-3-yl)amino)-3-(piperidin-1-yl)-1,2,4-triazine-6-carboxamide] | < 10 | 1.15 | 0.18 |  | 
6 | NC(=O)c1nnc(N2CCOCC2)nc1Nc1ccc(C2CCN(CC3CCN(c4ccc5c(c4)C(=O)N(C4CCC(=O)NC4=O)C5=O)C3)CC2)cc1 (stereo not shown) [Compound 019, 5-((4-(1-((1-(2-(2,6-dioxopiperidin-3-yl)-1,3-dioxoisoindolin-5-yl)pyrrolidin-3-yl)methyl)piperidin-4-yl)phenyl)amino)-3-morpholino-1,2,4-triazine-6-carboxamide] | < 10 | 2.13 | 1.1 |  | 
7 | Cc1cc(N2CCN(CC3CCN(c4ccc(Nc5nc(N6CCCCC6)nnc5C(N)=O)cc4F)CC3)CC2)ccc1N1CCC(=O)NC1=O [Compound 076, 5-((4-(4-((4-(4-(2,4-dioxotetrahydropyrimidin-1(2H)-yl)-3-methylphenyl)piperazin-1-yl)methyl)piperidin-1-yl)-3-fluorophenyl)amino)-3-(piperidin-1-yl)-1,2,4-triazine-6-carboxamide] | < 10 |  | 1.09 |  | 
8 | NC(=O)c1nnc(N2CCCCC2)nc1Nc1ccc(N2CCC(CN3CCN(c4ccc(N5CCC(=O)NC5=O)cc4)CC3)CC2)nc1 [Compound 048, 5-((6-(4-((4-(4-(2,4-dioxotetrahydropyrimidin-1(2H)-yl)phenyl)piperazin-1-yl)methyl)piperidin-1-yl)pyridin-3-yl)amino)-3-(piperidin-1-yl)-1,2,4-triazine-6-carboxamide] | < 10 |  | 0.61 |  | 
9 | NC(=O)c1nnc(N2CCCCC2)nc1Nc1ccc(C2CCN(CC3CCN(c4ccc(NC5CCC(=O)NC5=O)cn4)C3)CC2)cc1 (stereo not shown) [Compound 014, 5-((4-(1-((1-(5-((2,6-dioxopiperidin-3-yl)amino)pyridin-2-yl)pyrrolidin-3-yl)methyl)piperidin-4-yl)phenyl)amino)-3-(piperidin-1-yl)-1,2,4-triazine-6-carboxamide] | < 10 | 4.14 | 0.67 |  | 
10 | NC(=O)c1nnc(N2CCCCC2)nc1Nc1ccc(N2CCC(CN3CCN(c4ccc(C5CCC(=O)NC5=O)cn4)CC3)CC2)c(F)c1 (stereo not shown) [Compound 053, 5-((4-(4-((4-(5-(2,6-dioxopiperidin-3-yl)pyridin-2-yl)piperazin-1-yl)methyl)piperidin-1-yl)-3-fluorophenyl)amino)-3-(piperidin-1-yl)-1,2,4-triazine-6-carboxamide] | < 10 |  | 1.73 |  | 
11 | NC(=O)c1nnc(N2CCCCC2)nc1Nc1ccc(N2CCN(CC3CCN(c4ccc(NC5CCC(=O)NC5=O)c(F)c4)CC3)CC2)c(F)c1 (stereo not shown) [Compound 088, 5-((4-(4-((1-(4-((2,6-dioxopiperidin-3-yl)amino)-3-fluorophenyl)piperidin-4-yl)methyl)piperazin-1-yl)-3-fluorophenyl)amino)-3-(piperidin-1-yl)-1,2,4-triazine-6-carboxamide] | < 10 |  | 0.66 |  | 
12 | CC(=O)N[C@@H]1CCCN(c2nnc(C(N)=O)c(Nc3ccc(N4CCN(CC5CCN(c6ccc(N7CCC(=O)NC7=O)c(C)c6)CC5)CC4)c(F)c3)n2)C1 [Compound 090, (R)-3-(3-acetamidopiperidin-1-yl)-5-((4-(4-((1-(4-(2,4-dioxotetrahydropyrimidin-1(2H)-yl)-3-methylphenyl)piperidin-4-yl)methyl)piperazin-1-yl)-3-fluorophenyl)amino)-1,2,4-triazine-6-carboxamide] | < 10 | 1.94 | 0.89 | 78 | 63
13 | COc1cc(N2CCC(CN3CCN(c4ccc(Nc5nc(N6CCCCC6)nnc5C(N)=O)cc4F)CC3)CC2)ccc1N1CCC(=O)NC1=O [Compound 082, 5-((4-(4-((1-(4-(2,4-dioxotetrahydropyrimidin-1(2H)-yl)-3-methoxyphenyl)piperidin-4-yl)methyl)piperazin-1-yl)-3-fluorophenyl)amino)-3-(piperidin-1-yl)-1,2,4-triazine-6-carboxamide] | < 10 | 2.3 | 0.64 |  | 
14 | NC(=O)c1nnc(N2CCCCC2)nc1Nc1cnc(C2CCN(CC3CCN(c4ccc5c(c4)C(=O)N(C4CCC(=O)NC4=O)C5=O)C3)CC2)nc1 (stereo not shown) [Compound 005, 5-((2-(1-((1-(2-(2,6-dioxopiperidin-3-yl)-1,3-dioxoisoindolin-5-yl)pyrrolidin-3-yl)methyl)piperidin-4-yl)pyrimidin-5-yl)amino)-3-(piperidin-1-yl)-1,2,4-triazine-6-carboxamide] | < 10 | 2.47 | 0.41 |  | 
15 | NC(=O)c1nnc(N2CCCCC2)nc1Nc1ccc(N2CCN(CC3CCN(c4ccc(N5CCC(=O)NC5=O)c(F)c4)CC3)CC2)c(F)c1 [Compound 078, 5-((4-(4-((1-(4-(2,4-dioxotetrahydropyrimidin-1(2H)-yl)-3-fluorophenyl)piperidin-4-yl)methyl)piperazin-1-yl)-3-fluorophenyl)amino)-3-(piperidin-1-yl)-1,2,4-triazine-6-carboxamide] | < 10 |  | 0.7 |  | 
16 | NC(=O)c1nnc(N2CCCCC2)nc1Nc1ccc(N2CCN(CC3CCN(c4ccc(N5CCC(=O)NC5=O)cc4F)CC3)CC2)c(F)c1 [Compound 086, 5-((4-(4-((1-(4-(2,4-dioxotetrahydropyrimidin-1(2H)-yl)-2-fluorophenyl)piperidin-4-yl)methyl)piperazin-1-yl)-3-fluorophenyl)amino)-3-(piperidin-1-yl)-1,2,4-triazine-6-carboxamide] | < 10 |  | 0.7 |  | 
17 | NC(=O)c1nnc(N2CCCCC2)nc1Nc1ccc(N2CCN(CC3CCN(c4ccc(C(=O)NC5CCC(=O)NC5=O)c(F)c4)CC3)CC2)c(F)c1 (stereo not shown) [Compound 083, 5-((4-(4-((1-(4-((2,6-dioxopiperidin-3-yl)carbamoyl)-3-fluorophenyl)piperidin-4-yl)methyl)piperazin-1-yl)-3-fluorophenyl)amino)-3-(piperidin-1-yl)-1,2,4-triazine-6-carboxamide] | < 10 |  | 1.24 |  | 
